The text below walks through data of patent US20070185193A1, “Huvastatin and its preparation and formulation comprising the huvastatin” (HUAIBEI HUIKE PHARMACEUTICAL, CO. LTD., priority 2003, published 2007).

The test system of one data set is rats. The experiment in a line: Animal test: blood lipid level and cholesterol in rats. The format is in vivo. Conditions: twice per day, 0.05 or 0.1 mg/dose/rat, blood samples after one week. The protocol: Compound 1, 2 or 3 prepared in examples 1-3 were administered to rats (10 rats in each group), respectively, twice per day, 0.05 mg/dose/rat or 0.1 mg/dose/rat. Blood samples were taken and analyzed after one week for blood lipid level and cholesterol.

The nature of the next data set: physchem. Conditions: pH 7.4.

For `CCC(C)(C)C(=O)OC1CC(O)C=C2C=CC(C)C(CCC3CC(CC(=O)O)OC(C)(C)O3)C21` (stereo not drawn) [Compound 3], the “blood lipid versus control group” value in the data set with rats is “lower than that of the control group”. On to `CCC(C)(C)C(=O)OC1CC(O)C=C2C=CC(C)C(CCC3CC(O)CC(=O)O3)C21` (stereo not drawn) [Compound 1, 2,2-Dimethylbutyricacid-3-hydroxy-8-[2-(4-hydroxy-6-oxo-tetrahydropyran-2-yl)-ethyl]-7-methyl-1,2,3,7,8,8a-hexahydronaphthalen-1-yl ester], for which, in the data set on rats, the “blood lipid versus control group” value was “lower than that of the control group”. In “physchem”, this compound gave a log distribution coefficient (logD) of 0.82.

The term logD denotes the decadic logarithm of the distribution of all forms, ionised or not, between an organic phase and buffer at a given pH.
